Assays:
[1] = plasma concentrations of circulating metabolites; format: in vivo; settings: after VBZ
human VMAT1 transporter = target: T1, human VMAT1 transporter (Homo sapiens, UniProt P54219); test: uptake in cells expressing VMAT1; format: cell-based; settings: for inhibitory activity on uptake through VMAT1: concentrations up to 10 μM
T1 construct: expressed in transfected cells
T1 sequence (P54219 1-525): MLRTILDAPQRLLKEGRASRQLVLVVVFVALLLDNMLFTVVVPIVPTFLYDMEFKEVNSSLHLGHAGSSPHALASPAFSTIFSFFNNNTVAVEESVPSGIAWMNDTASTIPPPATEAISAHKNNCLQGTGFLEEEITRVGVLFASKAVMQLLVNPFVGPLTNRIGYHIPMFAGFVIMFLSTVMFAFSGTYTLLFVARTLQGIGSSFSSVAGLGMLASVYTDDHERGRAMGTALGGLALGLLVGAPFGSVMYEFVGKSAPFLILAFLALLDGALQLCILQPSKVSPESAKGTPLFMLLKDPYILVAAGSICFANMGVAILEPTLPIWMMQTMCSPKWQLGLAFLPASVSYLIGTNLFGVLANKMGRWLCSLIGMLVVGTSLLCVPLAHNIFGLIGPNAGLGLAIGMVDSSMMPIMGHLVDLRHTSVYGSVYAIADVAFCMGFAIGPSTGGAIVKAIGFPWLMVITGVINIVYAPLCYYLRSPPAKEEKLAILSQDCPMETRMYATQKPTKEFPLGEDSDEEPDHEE
Experimental: None of the TBZ or VBZ metabolites had any affinity for the monoamine transporters DAT, SERT or NET. To complete the selectivity profile for VMAT2, the functional activity for the human VMAT1 transporter of these compounds was tested in cells expressing VMAT1.

[2] = ptosis, in vivo surrogate measure
[3] = prolactin release, in vivo surrogate measure
[4] = case reports of hypersensitivity and dermatological reactions; format: in vivo, human
From the text: A total of 17 cases of hypersensitivity reaction and/or dermatological findings and evidence for possible causal relationship with VBZ have been reported either spontaneously (6) or after solicitation (11). Of these 17 cases, 14 cases had both hypersensitivity reaction with dermatological findings (5 were serious and 9 were non-serious).
In these 14 cases, there was a reasonable temporal relationship between the initiation of the drug and the onset of events. In 1 case, both dechallenge and rechallenge was positive. In 2 cases, the events worsened when the drug was continued and the events resolved on discontinuation of VBZ. In 3 cases, dechallenge was considered as positive. In 7 cases, the event resolved or was resolving following discontinuation of drug and receiving appropriate treatment, implying a causal association. Additionally, among these 7 cases, there was 1 case in which the event re-occurred on readministration of the drug. In the remaining 1 case, the events started immediately after starting VBZ, the subject continued taking VBZ and the event continued; therefore, a causal association between the drug and the event could not be ruled out.
Of the 17 cases, there were 2 cases in which the patients experienced hypersensitivity reaction with evidence for a possible causal relationship with VBZ, but without dermatological findings. Both these cases were non-serious. In 1 case, dechallenge was positive and in another case, the event re-occurred with their second dose of drug, implying a causal association between the drug and the events.
Of the 17 cases, there was 1 case in which the patient experienced only dermatological findings with evidence for a possible causal relationship to VBZ, but without evidence of other hypersensitivity reaction. This case was non-serious and dechallenge was positive in this case. In view of the information reported in these 17 cases there appears to be a possible causal relationship between the events and administration of VBZ. […] 2017.
Based on the case reports received through 10 Oct.

SMILES: COc1cc2c(cc1OC)[C@H]1C[C@@H](OC(=O)[C@@H](N)C(C)(C)O)[C@H](CC(C)C)CN1CC2 [NBI-136110]
- plasma half-life of metabolite [1]: half-lives similar to VBZ
- effect on uptake through VMAT1 (human VMAT1 transporter): no significant effect on the uptake of monoamines through VMAT1
- inhibitory activity on uptake through VMAT1 (human VMAT1 transporter): no significant inhibitory activity

SMILES: COc1cc2c(cc1OC)[C@H]1C[C@@H](O)[C@H](CC(C)C)CN1CC2 [R,R,R-DHTBZ, (2R, 3R,11bR)-3-isobutyl-9,10-dimethoxy-1,3,4,6,7,11b-hexahydro-2H-pyrido[2,1-a]isoquinolin-2-ol]
- ptosis [2]: induced ptosis in an equivalent manner
- plasma half-life of metabolite [1]: half-lives similar to VBZ
- serum prolactin levels [3]: induced a similar increase in serum prolactin levels as TBZ
- effect on uptake through VMAT1 (human VMAT1 transporter): no significant effect on the uptake of monoamines through VMAT1
- inhibitory activity on uptake through VMAT1 (human VMAT1 transporter): no significant inhibitory activity

SMILES: COc1cc2c(cc1OC)C1CC(=O)C(CC(C)C)CN1CC2 (stereo not shown) [TBZ, Tetrabenazine, reference compound]
- ptosis [2]: induced ptosis in an equivalent manner
- effect on uptake through VMAT1 (human VMAT1 transporter): no significant effect on the uptake of monoamines through VMAT1
- inhibitory activity on uptake through VMAT1 (human VMAT1 transporter): no significant inhibitory activity

SMILES: COc1cc2c(cc1OC)[C@H]1C[C@@H](OC(=O)[C@@H](N)C(C)C)[C@H](CC(C)C)CN1CC2 [Valbenazine, (S)-2-amino-3-methyl-butyric acid (2R, 3R,11bR)-3-isobutyl-9,10-dimethoxy-1,3,4,6,7,11b-hexahydro-2H-pyrido[2,1-a]isoquinolin-2-yl ester]
- non-serious cases with hypersensitivity reaction and dermatological findings ([4]; of the 14 cases): 9 cases
- serious cases with hypersensitivity reaction and dermatological findings ([4]; of the 14 cases): 5 cases
- cases with both hypersensitivity reaction with dermatological findings ([4]; of the 17 cases): 14 cases
- cases of hypersensitivity reaction without dermatological findings ([4]; of the 17 cases, non-serious): 2 cases
- cases with only dermatological findings ([4]; of the 17 cases, non-serious): 1 case
- cases of hypersensitivity reaction and/or dermatological findings with evidence for possible causal relationship ([4]; reported spontaneously (6) or after solicitation (11), through 10 Oct. 2017): 17 cases
- severe hypersensitivity or dermatological reactions suggesting Stevens Johnson Syndrome, Toxic Epidermal Necrolysis, or Drug Rash with Eosinophilia and Systemic Symptoms ([4]; through 10 Oct. 2017): no cases
- ptosis [2]: induced ptosis in an equivalent manner
- effect on uptake through VMAT1 (human VMAT1 transporter): no significant effect on the uptake of monoamines through VMAT1
- inhibitory activity on uptake through VMAT1 (human VMAT1 transporter): no significant inhibitory activity

SMILES: COC(=O)[C@H]1[C@H]2C[C@@H]3c4[nH]c5cc(OC)ccc5c4CCN3C[C@H]2C[C@@H](OC(=O)c2cc(OC)c(OC)c(OC)c2)[C@@H]1OC [reserpine, reference compound]
- effect on uptake through VMAT1 (human VMAT1 transporter): substantially inhibited uptake through VMAT1

From US20210228566A1, “METHODS OF TREATING A NEUROLOGICAL OR PSYCHIATRIC DISORDER” (priority 2018, published 2021)
